Activity calls are given as the source filed them. No cut-off for these calls is given here.
What was measured:
[1] = Cytotoxicity against human MCF7 cells assessed as inhibition of cell survival rate at 50 uM after 48 hrs by MTT assay relative to control; type: functional; conditions: MCF7, 48 h
[2] = tested on: NCI/ADR-RES; assay: Inhibition of P-gp in human MCF7/ADR cells assessed as potentiation of adriamycin-induced cytotoxic activity at 20 uM after 48 hrs by MTT assay relative to control; type: cell-based
[3] = tested on: NCI/ADR-RES; assay: Inhibition of P-gp in human MCF7/ADR cells assessed as increase in intracellular adriamycin accumulation at 10 uM after 3 hrs by flow cytometry relative to control; type: cell-based
[4] = tested on: NCI/ADR-RES; assay: Inhibition of P-gp in human MCF7/ADR cells assessed as increase in intracellular rhodamine123 accumulation at 10 to 20 uM incubated for 4 hrs in dark condition by flow cytometry; type: cell-based
[5] = tested on: NCI/ADR-RES; assay: Inhibition of P-gp in human MCF7/ADR cells assessed as increase in intracellular adriamycin accumulation at 20 uM after 3 hrs by flow cytometry; type: cell-based
[6] = Cytotoxicity against human MCF7/ADR cells assessed as inhibition of cell survival rate after 48 hrs by MTT assay; type: functional, cell-based; conditions: NCI/ADR-RES
[7] = Cytotoxicity against human MCF7 cells assessed as inhibition of cell survival rate after 48 hrs by MTT assay; type: functional, cell-based; conditions: MCF7, 48 h
[8] = tested on: NCI/ADR-RES; assay: Reversal index, ratio of IC50 for human MCF7/ADR cells to IC50 for human MCF7 cells; type: functional
[9] = tested on: NCI/ADR-RES; assay: Inhibition of P-gp in human MCF7/ADR cells assessed as potentiation of adriamycin-induced cell death by measuring dead cell levels at 10 uM after 48 hrs by 7-AAD staining-based flow cytometry; design: scale not given: the % may be the effect or the level left
[10] = Downregulation of P-gp expression in human MCF7/ADR cells at 20 uM after 36 hrs by Western blot method relative to control; type: functional, cell-based; conditions: NCI/ADR-RES
[11] = tested on: NCI/ADR-RES; assay: Inhibition of P-gp in human MCF7/ADR cells assessed as increase in intracellular adriamycin accumulation at 10 uM after 3 hrs by flow cytometry relative to verapamil; type: cell-based
[12] = tested on: NCI/ADR-RES; assay: Inhibition of P-gp in human MCF7/ADR cells assessed as increase in intracellular adriamycin accumulation at 20 uM after 3 hrs by flow cytometry relative to verapamil; type: cell-based
[13] = tested on: NCI/ADR-RES; assay: Inhibition of P-gp in human MCF7/ADR cells assessed as potentiation of adriamycin-induced cell death by measuring dead cell levels at 20 uM after 48 hrs by 7-AAD staining-based flow cytometry (reference value: 8.1%); design: scale not given: the % may be the effect or the level left
[14] = Downregulation of P-gp expression in human MCF7/ADR cells at 10 uM after 36 hrs by Western blot method relative to control; type: functional, cell-based; conditions: NCI/ADR-RES
[15] = tested on: NCI/ADR-RES; assay: Inhibition of P-gp in human MCF7/ADR cells assessed as increase in intracellular adriamycin accumulation at 10 to 20 uM after 4 hrs by fluorescence microscopic analysis; type: cell-based

## CC1=CC[C@@H](O)[C@H]2[C@@]1(C)[C@@H](OC(=O)c1cccnc1)[C@H](O)[C@]1(C)O[C@]3(COC(=O)C3)C[C@H](OC(=O)c3cccnc3)[C@]21C (relative stereo)
[1]
  inhibition at 50 µM: 14.6%
[2]
  fold change (FC): 7.5

## CC(=O)O[C@@H](CC1=C(O)C(=O)OC1)[C@]1(C)[C@H]2CCC=C(C)[C@]2(C)[C@@H](OC(=O)c2cccnc2)[C@H](O)[C@]1(C)O
[1]
  inhibition at 50 µM: 18.5%
[2]
  fold change (FC): 1.5

## CC1=CCC[C@H]2[C@@]1(C)[C@@H](OC(=O)c1cccnc1)[C@H](OC(=O)c1cccnc1)[C@](C)(O)[C@]2(C)/C=C/C1=CC(=O)OC1
[1]
  inhibition at 50 µM: 31.4%
[2]
  fold change (FC): 4.6

## CC(=O)OC(C(=O)O[C@H]1[C@H](OC(=O)c2cccnc2)[C@@]2(C)C(C)=CCC[C@@H]2[C@@](C)(/C=C/C2=CC(=O)OC2)[C@@]1(C)O)C(C)C (stereo not given in full)
[1]
  inhibition at 50 µM: 23.8%
[2]
  fold change (FC): 11.4

## CC(=O)O[C@H]1[C@H](OC(=O)c2cccnc2)[C@@]2(C)C(C)=CC[C@@H](OC(=O)c3cccnc3)[C@@H]2[C@@]2(C)CC[C@@]3(COC(=O)C3)O[C@@]12C
[3]
  fold change (FC): 2.36
[1]
  inhibition at 50 µM: 35.7%
[2]
  fold change (FC): 37.7
[4]
  inhibition: Active
[5]
  inhibition: Active

## CC1=CC[C@@H](O)[C@H]2[C@@]1(C)[C@@H](OC(=O)c1cccnc1)[C@H](O)[C@]1(C)O[C@]3(COC(=O)C3O)C[C@H](OC(=O)c3cccnc3)[C@]21C (relative stereo)
[1]
  inhibition at 50 µM: 19.5%
[2]
  fold change (FC): 7.9

## CC1=CC[C@@H](OC(=O)c2cccnc2)[C@H]2[C@@]1(C)[C@@H](OC(=O)c1cccnc1)[C@H](O)[C@]1(C)O[C@@]3(CC[C@]21C)COC(=O)C3
[3]
  inhibition: Active
[1]
  inhibition at 50 µM: 15.1%
[2]
  fold change (FC): 11.4
[4]
  inhibition: Active
[5]
  inhibition: Active

## CC1=CCC[C@H]2[C@@]1(C)[C@@H](OC(=O)c1cccnc1)[C@H](OC(=O)c1cccnc1)[C@](C)(O)[C@]2(C)/C=C\C1=CC(=O)OC1
[1]
  inhibition at 50 µM: 18.8%
[2]
  fold change (FC): 13.1

## CC1=CCC[C@H]2[C@@]1(C)[C@@H](OC(=O)c1cccnc1)[C@H](OC(=O)C(C)C)[C@](C)(O)[C@]2(C)/C=C/C1=CC(=O)OC1
[1]
  inhibition at 50 µM: 19.1%
[2]
  fold change (FC): 6.3

## CC1=CC[C@@H](OC(=O)c2ccccc2)[C@H]2[C@@]1(C)[C@@H](OC(=O)c1cccnc1)[C@H](O)[C@]1(C)O[C@@]3(CC[C@]21C)COC(=O)C3
[3]
  inhibition: Active
[1]
  inhibition at 50 µM: 41.3%
[2]
  fold change (FC): 33.4
[4]
  inhibition: Active
[5]
  inhibition: Active

## CC1=CC[C@@H](OC(=O)c2ccccc2)[C@H]2[C@@]1(C)[C@@H](OC(=O)c1cccnc1)[C@H](O)[C@]1(C)O[C@]3(CC[C@]21C)COC(=O)C3 (relative stereo)
[3]
  inhibition: Active
[1]
  inhibition at 50 µM: 20.1%
[2]
  fold change (FC): 17.8
[4]
  inhibition: Active
[5]
  inhibition: Active

## CC[C@]1(O)C[C@H]2CN(CCc3c([nH]c4ccccc34)[C@@](C(=O)OC)(c3cc4c(cc3OC)N(C=O)[C@H]3[C@@](O)(C(=O)OC)[C@H](OC(C)=O)[C@]5(CC)C=CCN6CC[C@]43[C@@H]65)C2)C1 [VINCRISTINE]
[6]
  IC50: 62.8 µM
[7]
  IC50: 1.3 µM
[8]
  Ratio IC50: 48.3

## CC(=O)OC(C(=O)O[C@H]1[C@H](OC(=O)c2cccnc2)[C@@]2(C)C(C)=CCC[C@@H]2[C@@](C)(CCC2=C(O)C(=O)OC2)[C@@]1(C)O)C(C)C (stereo not given in full)
[1]
  inhibition at 50 µM: 37.6%
[2]
  fold change (FC): 3

## CC(=O)O[C@@H](CC1=C(O)C(=O)OC1)[C@]1(C)[C@H]2CCC=C(C)[C@]2(C)[C@@H](OC(=O)c2cccnc2)[C@H](OC(=O)c2ccccc2)[C@]1(C)O
[1]
  inhibition at 50 µM: 23.1%
[2]
  fold change (FC): 2

## CC(=O)O[C@H]1[C@H](OC(=O)c2cccnc2)[C@@]2(C)C(C)=CC[C@@H](OC(=O)c3cccnc3)[C@@H]2[C@@]2(C)CC[C@]3(COC(=O)C3)O[C@@]12C
[3]
  inhibition: Active
[1]
  inhibition at 50 µM: 28.5%
[2]
  fold change (FC): 16.7
[4]
  inhibition: Active
[5]
  inhibition: Active

## COc1cccc2c1C(=O)c1c(O)c3c(c(O)c1C2=O)C[C@@](O)(C(=O)CO)C[C@@H]3O[C@H]1C[C@H](N)[C@H](O)[C@H](C)O1.Cl [DOXORUBICIN HYDROCHLORIDE]
[6]
  IC50: 58.8 µM
[7]
  IC50: 1 µM
[8]
  Ratio IC50: 58.8

## CC1=CCC[C@H]2[C@@]1(C)[C@@H](OC(=O)c1cccnc1)[C@H](O)[C@](C)(O)[C@]2(C)CCC1=C(O)C(=O)OC1
[1]
  inhibition at 50 µM: 28.5%
[2]
  fold change (FC): 11.5

## CC(=O)O[C@H]1[C@H](OC(C)=O)[C@]2(C)O[C@]3(CC[C@]2(C)[C@H]2[C@H](OC(=O)c4cccnc4)CC=C(C)[C@]12C)COC(=O)C3
[1]
  inhibition at 50 µM: 19.5%
[2]
  fold change (FC): 13
[4]
  inhibition: Active

## CC1=CC[C@@H](OC(=O)c2cccnc2)[C@H]2[C@@]1(C)[C@@H](OC(=O)c1cccnc1)[C@H](OC(=O)c1cccnc1)[C@]1(C)O[C@]3(CC[C@]21C)COC(=O)C3
[3]
  fold change (FC): 2.27
[1]
  inhibition at 50 µM: 40.6%
[2]
  fold change (FC): 29.6
[4]
  inhibition: Active
[5]
  inhibition: Active

## COc1ccc(CCN(C)CCCC(C#N)(c2ccc(OC)c(OC)c2)C(C)C)cc1OC (stereo not given)
[3]
  fold change (FC): 2.1
[2]
  fold change (FC): 20.4
[9]
  Activity: 46.7%

## CC1=CCC[C@H]2[C@@]1(C)[C@@H](OC(=O)c1cccnc1)[C@H](OC(=O)c1ccccc1)[C@](C)(O)[C@]2(C)/C=C/C1=CC(=O)OC1
[1]
  inhibition at 50 µM: 23.8%
[2]
  fold change (FC): 10.1

## CC(=O)O[C@H]1[C@H](OC(=O)c2cccnc2)[C@@]2(C)C(C)=CC[C@@H](O)[C@@H]2[C@@]2(C)[C@@H](OC(=O)c3cccnc3)C[C@@]3(COC(=O)C3)O[C@@]12C
[3]
  inhibition: Active
[1]
  inhibition at 50 µM: 14.3%
[2]
  fold change (FC): 29.1
[4]
  inhibition: Active
[5]
  inhibition: Active

## CC(=O)O[C@@]12CO[C@@H]1C[C@H](O)[C@@]1(C)C(=O)[C@H](O)C3=C(C)[C@@H](OC(=O)[C@H](O)[C@@H](NC(=O)OC(C)(C)C)c4ccccc4)C[C@@](O)([C@@H](OC(=O)c4ccccc4)[C@H]21)C3(C)C [DOCETAXEL ANHYDROUS]
[6]
  IC50: 21.2 µM
[7]
  IC50: 0.8 µM
[8]
  Ratio IC50: 26.5

## CC1=CC[C@@H](OC(=O)c2cccnc2)[C@H]2[C@@]1(C)[C@H]1O[C@@](O)(C(C)C)C(=O)O[C@@H]1[C@]1(C)O[C@@]3(CC[C@]21C)COC(=O)C3
[3]
  inhibition: Active
[1]
  inhibition at 50 µM: 20.6%
[2]
  fold change (FC): 12.2
[4]
  inhibition: Active
[5]
  inhibition: Active

## CC1=CC[C@@H](OC(=O)c2cccnc2)[C@H]2[C@@]1(C)[C@@H](OC(=O)c1cccnc1)[C@H](OC(=O)c1ccccc1)[C@]1(C)O[C@]3(CC[C@]21C)COC(=O)C3
[3]
  fold change (FC): 2.89
[1]
  inhibition at 50 µM: 13.6%
[10]
  Activity: 32%
[11]
  fold change (FC): 1.5
[12]
  fold change (FC): 1.8
[13]
  Activity: 89.2%
[2]
  fold change (FC): 45.3
[14]
  Activity: 27%
[4]
  inhibition: Active
[5]
  inhibition: Active
[15]
  inhibition: Active
[9]
  Activity: 74.7%

## CC(=O)O[C@@H](CC1=C(O)C(=O)OC1)[C@]1(C)[C@H]2CCC=C(C)[C@]2(C)[C@@H](OC(=O)c2cccnc2)[C@H](OC(=O)c2cccnc2)[C@]1(C)O
[1]
  inhibition at 50 µM: 17.1%
[2]
  fold change (FC): 3.3

## CC(=O)OC[C@@]12[C@@H](OC(C)=O)C[C@@H](C)[C@](C)(C3O[C@@H]4OC[C@@H](OC(=O)c5cccnc5)[C@@H]4[C@@H]3O)[C@H]1CCC[C@]21CO1 (stereo not given in full)
[1]
  inhibition at 50 µM: 25.2%
[2]
  fold change (FC): 2.8

## CC1=CCC[C@H]2[C@@]1(C)[C@@H](OC(=O)c1cccnc1)[C@H](OC(=O)c1ccccc1)[C@](C)(O)[C@]2(C)/C=C\C1=CC(=O)OC1
[1]
  inhibition at 50 µM: 17.4%
[2]
  fold change (FC): 9

## CC(=O)O[C@H]1[C@H](OC(C)=O)[C@]2(C)O[C@@]3(CC[C@]2(C)[C@H]2[C@H](OC(=O)c4cccnc4)CC=C(C)[C@]12C)COC(=O)C3 (relative stereo)
[3]
  inhibition: Active
[1]
  inhibition at 50 µM: 16.6%
[2]
  fold change (FC): 11.5
[4]
  inhibition: Active
[5]
  inhibition: Active

From ChEMBL document CHEMBL3856213, “neo-Clerodane diterpenoids from Scutellaria barbata mediated inhibition of P-glycoprotein in MCF-7/ADR cells” (Eur J Med Chem, 2016)
